# Entries after “also recorded” stand apart in the source; their conditions may differ.
# What was measured:
# [1] = target: KDR (Homo sapiens, UniProt P35968); conditions: cited from earlier work
# [2] = system: VEGF-induced angiogenesis; conditions: rabbit corneal model; cited from earlier work
# [3] = system: human Neurons; experiment: Transwell (Boyden chamber) migration assay of human neurons towards chemoattractant-soaked agarose beads; format: cell-based; conditions: agarose beads soaked with 30 ng/ml factor in lower well; 20 hours
# Experimental: FIG. 1B Migration of human Neurons monitored after 20 hours in culture towards either medium or plated neural stem cells derived from human embryonic stem cells (lt-hESNSC) or agarose beads pre-soaked with BDNF, EGF, SDF1, SCF, PDGF, FGF2 or VEGF. Bars represent percentage of migrated neurons (*P<0.03; Statistical significance was determined in relation to medium control).
# (§1) One way to study migration at the cellular level is to use microchemotaxis chambers (Boyden chambers; see FIG. 1A) (Richards & McCullough, 1984). A membrane separates the upper and the lower part of the chamber. Cells are plated on the PO/LN coated membrane that separates the upper and the lower well. Chemoattractants are introduced in the well of the lower compartment e.g., by soaking agarose beads (affi-gel blue gel) with the corresponding chemoattractants. 100 μl of the pre-soaked beads are introduced in the lower well and covered with medium before placing the upper well on top. The chemoattractant will be released over time, thus creating a chemoattractive gradient. If the agent acts as a chemoattractant, the attached cells will migrate through the filter towards the gradient of the attracting factor. Small pore sizes (8 μm) require active migration rather than passive falling of the cells through the filter.
# In this study agarose beads were soaked with either 30 ng/ml EGF, BDNF, SDF1, SCF, PDFG-AA, FGF2 or VEGF (FIG. 1B). The chemoattractive effect of NSCs on neurons was studied by plating lt-hESNSC directly in the PO/LN coated lower well before placing the upper well with the attached neurons on top. After a culture period of 20 hours, chambers were fixed with 4% PFA for 10 min. Cells that had not migrated and were still on the upper side of the membrane were scraped off, while the migrated cells on the lower side were DAPI stained and counted.
# [4] = system: human Neurons; experiment: Dunn chamber migration assay (chemotaxis of immature neurons); format: cell-based; conditions: factor 200 ng/ml in outer well only; 6 h recording
# Experimental: FIG. 7A Dunn chamber migration assay. Schematic representation of a direct-viewing Dunn chemotaxis chamber showing the position of the inner well, the bridge, the outer well and the overlying coverslip (a) (Zicha et al., 1991 1998, Zhang et al., 2003). Adopted from Hawksley. Calculation of the forward migration index (FMI) during a 6 h recording period. FMI values can be either positive or negative, depending on the direction in which the cell is migrating (b).
# FIG. 7B Directionality analysis of cell movement using scatter plots of cell displacement (c-i). The diagrams orientate such that the position of the outer well of the chamber are vertical (y direction). Each point represents the final position of a cell at the end of the recording period of 6-h; the starting point of migration is fixed at the intersection of the two axes. As control migration of human neurons was monitored in medium only (c). For assessing chemokinesis, equal amounts of FGF2 (d) or VEGF (e) were added to both the outer and the inner wells of the chamber. Chemotaxis was tested by placing FGF2 (f) or VEGF (g) in the outer well only. Migration of human neurons treated with BFBF1120 was monitored towards a FGF2 (h) and VEGF (i) gradient.
# Chemotaxis of immature neurons was directly viewed and recorded in stable concentration gradients of FGF2 (200 ng/ml) or VEGF (200 ng/ml), respectively, with or without the addition of BIBF1120 ([…]) using a Dunn chemotaxis chamber (Allen et al., 1998 1998, Zhang et al., 2003). This device is made from a Helber bacteria counting chamber by grinding a circular well in the central platform to leave a 1 mm-wide annular bridge between the inner and the outer well. Chemoattractants added to the outer well of the chamber will diffuse across the bridge to the inner well and form a linear steady gradient within ˜30 min after loading the chamber (Zicha et al., 1991; Webb et al., 1996). To study chemotaxis, the outer well of the Dunn chamber can be filled with medium containing a chemoattractant, whereas the concentric inner well is filled with medium only. Coverslips carrying the cultured cells are inverted and placed onto the chamber. Cell locomotion is recorded through the annular bridge between the concentric inner and outer well. For assessing chemokinesis, the outer and inner wells are filled with equal concentrations of the chemoattractant. A period of 6 h was chosen to assess cell migration.
# To determine the efficiency of forward migration during the 6 h recording period, the FMI was calculated as the ratio of forward progress to the total path length (Foxman et al., 1999; Zhang et al.).
# [5] = system: immature neurons in the presence of neural stem/progenitor cells (hES-NSC70+N30); experiment: Boyden chamber assay of neural stem/progenitor cells mixed with immature neurons (hES-NSC70+N30) pre-incubated with inhibitor; format: cell-based, human; conditions: hES-NSC70+N30 pre-incubated for 30 minutes with agent
# Experimental: Bars represent the percentage of migrated neurons after 20 hours in culture towards medium or a chemoattractant either with or without VEGF R2-AB or endostatin treatment. Cell numbers were normalised to the number of plated neurons (*P≦0.02; statistical significance was determined in relation to the control).
# as §1, with “If the agent acts as a chemoattractant, the attached cells will migrate through the filter towards the gradient of the attracting factor. Small pore sizes (8 μm) require active migration rather than passive falling of the cells through the filter.” left out
# In this study agarose beads were soaked with either 30 ng/ml EGF, BDNF, SDF1, SCF, PDFG-AA, FGF2 or VEGF (FIG. 1B). […] Cells that had not migrated and were still on the upper side of the membrane were scraped off, while the migrated cells on the lower side were DAPI stained and counted. […]
# [6] = system: lt-hESNSC mixed with immature neurons on hippocampal rat slice cultures; experiment: Transplantation onto rat hippocampal slice cultures (migration of human neurons from mixed grafts); format: cell-based
# Experimental: Using a vibroslicer, 400 μm horizontal sections were generated from the hippocampus of 9-10 day-old Wistar rats. The slices included the dentate gyrus and the entorhinal and temporal cortex (Scheffler et al., 2003; Opitz et al., 2007). They were transferred onto a polyester membrane and cultivated at 35° C., 5% CO2 and saturated air humidity in an initial culture medium containing 25% normal horse serum, which was gradually replaced after 3-5 days by chemically defined, serum-free culture medium based on DMEM/F12, N2 supplement and B27 supplement. Medium was changed every other day and 5-7 days after explantation a cell suspension of 50 000 cells in a 1 μl volume was spotted onto the entorhinal cortex of the slice using an injection device.
# For immunohistochemical analysis of slice cultures (FIG. 4), cultures were fixed in 4% paraformaldehyde for 4 hours and subsequently washed several times with PBS. Slices were permeabilized/blocked with 0.1% Triton X-100+10% FCS for 6 hours at 25° C. Incubation with primary antibody was for 16 hours at room temperature, followed by washing steps with PBS for 5 hours. Incubation with the secondary antibodies was for 2 hours at room temperature.
# To further investigate whether endostatin can also interfere with the chemoattractive effect of neural stem/progenitor cells on immature neurons in a context closer to an in vivo situation, hippocampal rat slice culture experiments were performed. HES-NSC70+N30 were pre-incubated for 30 minutes in 30 μl Cytocon™-Buffer II with either 2 μl stock solution endostatin (n=9) or with 2 μl of the solvent of endostatin (citric-phosphate buffer) as control (n=9), and then deposited on the entorhinal cortex of hippocampal slice cultures. Cultures of pure human neurons were transplanted as positive control (n=9). The slices were further cultured for 18 days after deposition of the cells. 1 μl/ml endostatin stock solution was continuously applied every day to the slice media.
# To further investigate whether BIBF1120 can also interfere with the chemoattractive effect of neural stem/progenitor cells on immature neurons, hippocampal rat slice culture experiments were performed. Lt-hESNSC mixed with purified DCX-EGFP positive neurons (30.0000 lt-hESNSC mixed with 100.000 purified neurons per μl) were pre-incubated for 30 min. in Cytocon™-Buffer II with or without 2 μg/ml BIBF1120, respectively, and then deposited on the entorhinal cortex (EC) of hippocampal slice cultures. The slices were further cultured for 7 days after deposition of the cells. 2 μg/ml BIBF1120 was continuously applied every day to the slice media.
# [7] = system: primary tumor; conditions: cited from earlier work
# Chain of KDR (P35968 20-1356): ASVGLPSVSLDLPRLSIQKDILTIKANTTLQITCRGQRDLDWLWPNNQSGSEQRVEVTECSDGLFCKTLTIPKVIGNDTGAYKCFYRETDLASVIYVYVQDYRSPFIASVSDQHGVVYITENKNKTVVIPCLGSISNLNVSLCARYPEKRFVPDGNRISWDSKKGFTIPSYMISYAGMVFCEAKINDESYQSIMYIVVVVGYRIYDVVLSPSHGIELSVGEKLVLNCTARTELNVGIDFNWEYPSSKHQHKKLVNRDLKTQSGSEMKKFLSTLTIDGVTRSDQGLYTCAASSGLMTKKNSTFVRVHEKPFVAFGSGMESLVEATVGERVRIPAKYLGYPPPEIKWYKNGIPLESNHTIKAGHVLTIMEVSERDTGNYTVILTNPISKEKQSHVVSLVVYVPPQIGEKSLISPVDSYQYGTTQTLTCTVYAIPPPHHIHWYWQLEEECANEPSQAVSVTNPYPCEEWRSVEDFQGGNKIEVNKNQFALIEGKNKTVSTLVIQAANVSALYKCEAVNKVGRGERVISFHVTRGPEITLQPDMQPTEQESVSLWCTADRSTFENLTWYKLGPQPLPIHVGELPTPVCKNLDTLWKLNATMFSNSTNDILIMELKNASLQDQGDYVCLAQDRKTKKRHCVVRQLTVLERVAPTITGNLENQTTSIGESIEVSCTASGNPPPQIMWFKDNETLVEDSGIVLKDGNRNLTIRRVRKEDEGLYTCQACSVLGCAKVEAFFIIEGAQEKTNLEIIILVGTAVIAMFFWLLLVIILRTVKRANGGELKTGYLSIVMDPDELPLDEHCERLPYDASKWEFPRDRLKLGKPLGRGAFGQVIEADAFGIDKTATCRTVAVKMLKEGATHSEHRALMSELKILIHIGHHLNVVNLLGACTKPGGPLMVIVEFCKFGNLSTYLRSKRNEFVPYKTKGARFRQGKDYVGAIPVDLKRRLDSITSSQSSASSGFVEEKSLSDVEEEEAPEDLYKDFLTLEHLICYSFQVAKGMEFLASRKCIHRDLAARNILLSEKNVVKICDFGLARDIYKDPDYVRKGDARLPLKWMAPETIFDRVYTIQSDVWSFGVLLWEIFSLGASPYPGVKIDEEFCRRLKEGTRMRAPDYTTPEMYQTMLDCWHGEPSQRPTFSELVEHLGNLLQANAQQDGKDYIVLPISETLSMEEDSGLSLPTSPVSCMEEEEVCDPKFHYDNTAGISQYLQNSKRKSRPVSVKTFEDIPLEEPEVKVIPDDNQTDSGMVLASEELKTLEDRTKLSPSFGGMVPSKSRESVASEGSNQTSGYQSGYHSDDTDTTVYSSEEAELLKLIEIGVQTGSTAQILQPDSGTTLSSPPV
substance,measurement,setting,value
ATWLPPR,VEGF binding to cell-displayed KDR,[1],abolish
same,VEGF-induced angiogenesis,[2],abolished
"FGF2: fibroblast growth factor 2, an 18 kDa protein",chemoattractive effect on neurons in the chamber migration assay,[3],neuronal chemoattractants; also recorded: significant chemoattractive effect
same,chemotaxis of human neurons towards gradient of the factor,[4],neuronal chemoattractants; also recorded: clear directionality of migration
"PDGF: platelet-derived growth factor, tested as neuronal chemoattractant",chemoattractive effect on neurons in the chamber migration assay,[3],neuronal chemoattractants; also recorded: significant chemoattractive effect
SDF1: soluble factor tested as neuronal chemoattractant,chemoattractive effect on neurons in the chamber migration assay,[3],neuronal chemoattractants
VEGF,chemoattractive effect on neurons in the chamber migration assay,[3],neuronal chemoattractants; also recorded: significant chemoattractive effect
same,chemotaxis of human neurons towards gradient of the factor,[4],neuronal chemoattractants; also recorded: clear directionality of migration
endostatin,migration of immature neurons towards PDGF gradient,[5]; agarose beads releasing PDGF,additionally enhanced the effect
same,migration of immature neurons towards media,"[5]; plain agarose beads, 20 hours, vs solvent control",significantly enhanced migration; also recorded: most prominent enhancement of migration
same,migration of single human neurons away from the transplantation core (horizontal),"[6]; hES-NSC70+N30, endostatin pre-incubation and daily application, day 18",up to 800 μm
same,migration horizontally over the slice compared to control population,"[6]; hES-NSC70+N30, endostatin treated, 18 days after transplantation",enhanced migration and integration capacity
same,depth reached along the z-axis,"[6]; hES-NSC70+N30, endostatin treated, day 18",350 μm
same,toxicity during continued treatment,[7]; in vivo,no toxicity
same,tumor regression in size,[7]; recombinant E. coli-derived endostatin added at a site remote from the primary tumor,over 150 fold
same,tumor size after regression,[7]; recombinant E. coli-derived endostatin,less than 1 mm^3

# — patent publication US9844572B2, “Promotion of neuronal integration in neural stem cell grafts” (Life & Brain GmbH, priority 2009, dated 2017)
